Results as given in patent US11590116B2 (THERAVANCE BIOPHARMA R&D IP, LLC, priority 2019, dated 2023).

Tests used:
[1] = test system: TGF-β-stimulated SMAD3 phosphorylation in BEAS-2B cells; assay: Cellular ALK5 potency assay, inhibition of TGF-β stimulated pSMAD3 formation in BEAS-2B cells; format: cell-based; conditions: Homo sapiens; inhibition of TGF-β stimulated pSMAD3 formation, BEAS-2B cells; read-out: BEAS2B pIC50 (converted)
Procedure, shortened: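 Potency is reported as pIC50, derived from concentration-dependent reduction of pSMAD3 AlphaLISA signal against TGF-β-stimulated cells without compound. BEAS-2B cells received compound for 1 h before a 30-min stimulation with 10 ng/mL TGF-β.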

[2] = target: T1, recombinant human ALK5 (TGF-βR1) protein (Homo sapiens, UniProt P36897); assay: Biochemical ALK5 (TGF-βR1) assay to measure pKi (LANCE Ultra ULight kinase assay); conditions: apparent pKi from pIC50 by Cheng-Prusoff, read-out: ALK5 pKi (converted)
T1 construct: purchased Life Technologies PR9075A
T1 sequence (P36897 34-503): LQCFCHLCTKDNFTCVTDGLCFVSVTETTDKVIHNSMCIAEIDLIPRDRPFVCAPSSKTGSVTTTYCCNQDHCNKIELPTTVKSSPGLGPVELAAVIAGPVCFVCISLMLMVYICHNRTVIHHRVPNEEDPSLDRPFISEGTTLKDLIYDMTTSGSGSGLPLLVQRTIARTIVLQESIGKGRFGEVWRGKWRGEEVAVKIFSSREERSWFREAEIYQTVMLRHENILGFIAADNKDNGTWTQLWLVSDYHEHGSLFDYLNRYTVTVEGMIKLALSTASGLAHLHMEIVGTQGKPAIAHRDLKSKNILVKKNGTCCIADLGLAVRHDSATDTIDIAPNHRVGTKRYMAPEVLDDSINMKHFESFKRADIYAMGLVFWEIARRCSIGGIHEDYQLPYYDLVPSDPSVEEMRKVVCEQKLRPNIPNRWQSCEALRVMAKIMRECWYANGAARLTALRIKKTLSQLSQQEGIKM
Procedure, shortened: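 After a 60 min room-temperature preincubation of ALK5 with compound, phosphorylation proceeds 60 min at 37 °C on ATP addition (125 μM as 5× stock). Detection: Eu-labelled phospho-Thr1342 Topo IIα antibody in EDTA buffer, pH 7.0; emission 665 nm.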

SMILES	Ki [2]	IC50 [1]
CCN1CCN(CCNc2cnc3ccc(-c4c[nH]nc4-c4cccc(C)n4)nc3c2)CC1 [Compound 508, N-[2-(4-ethylpiperazin-1-yl)ethyl]-6-[3-(6-methyl-2-pyridyl)-1H-pyrazol-4-yl]-1,5-naphthyridin-3-amine]	0.0398 to 0.316 nM	25.1 to 158 nM
Cc1cccc(-c2n[nH]cc2-c2ccc3ncc(-c4ccc(C5CCCN(Cc6ccccc6)C5)cc4)cc3n2)n1 (stereo not shown) [Compound 251, 7-[4-(1-benzyl-3-piperidyl)phenyl]-2-[3-(6-methyl-2-pyridyl)-1H-pyrazol-4-yl]-1,5-naphthyridine]	0.0398 to 0.316 nM	200 to 1260 nM
Cc1cccc(-c2n[nH]cc2-c2ccc3nccc(CNCCN4CCOCC4)c3n2)n1 [Compound 816, N-[[6-[3-(6-methyl-2-pyridyl)-1H-pyrazol-4-yl]-1,5-naphthyridin-4-yl]methyl]-2-morpholino-ethanamine]	0.0398 to 0.316 nM	25.1 to 158 nM
Cc1cccc(-c2nnn(C)c2-c2ccc3ncc(-c4cn[nH]c4)cc3c2)n1 [Compound 399, 6-[3-methyl-5-(6-methyl-2-pyridyl)triazol-4-yl]-3-(1H-pyrazol-4-yl)quinoline]	< 0.0316 nM	< 20 nM
Cc1cccc(-c2[nH]cnc2-c2ccc3ncc(C(=O)OC[C@H]4CCCNC4)cc3c2)n1 [Compound 772, [(3S)-3-piperidyl]methyl 6-[5-(6-methyl-2-pyridyl)-1H-imidazol-4-yl]quinoline-3-carboxylate]	0.0398 to 0.316 nM	25.1 to 158 nM
Cc1cccc(-c2[nH]cnc2-c2ccc3ncc(-c4csc(C(=O)OC[C@H]5CCCN5)c4)cc3c2)n1 [Compound 1219, [(2R)-pyrrolidin-2-yl]methyl 4-[6-[5-(6-methyl-2-pyridyl)-1H-imidazol-4-yl]-3-quinolyl]thiophene-2-carboxylate]	< 0.0316 nM	25.1 to 158 nM
Cc1cccc(-c2[nH]cnc2-c2ccc3ncc(-c4ncc(C5=CCNCC5)s4)cc3c2)n1 [Compound 1084, 2-[6-[5-(6-methyl-2-pyridyl)-1H-imidazol-4-yl]-3-quinolyl]-5-(1,2,3,6-tetrahydropyridin-4-yl)thiazole]	0.0398 to 0.316 nM	< 20 nM
Cc1nc(-c2n[nH]cc2-c2ccc3ncc(-c4[nH]nc5c4CNCC5)cc3n2)ccc1F [Compound 173, 2-[3-(5-fluoro-6-methyl-2-pyridyl)-1H-pyrazol-4-yl]-7-(4,5,6,7-tetrahydro-2H-pyrazolo[4,3-c]pyridin-3-yl)-1,5-naphthyridine]	0.0398 to 0.316 nM	200 to 1260 nM
CNCc1cncc(-c2cnc3ccc(-c4nc[nH]c4-c4cccc(C)n4)cc3c2)c1 [Compound 342, N-methyl-1-[5-[6-[5-(6-methyl-2-pyridyl)-1H-imidazol-4-yl]-3-quinolyl]-3-pyridyl]methanamine]	0.0398 to 0.316 nM	25.1 to 158 nM
Cc1cccc(-c2[nH]cnc2-c2ccc3ncc(N4CC5(CCCNC5)C4)cc3c2)n1 [Compound 159, 3-(2,8-diazaspiro[3.5]nonan-2-yl)-6-[5-(6-methyl-2-pyridyl)-1H-imidazol-4-yl]quinoline]	< 0.0316 nM	< 20 nM
Cc1cccc(-c2n[nH]cc2-c2ccc3ncc(CCC(=O)O)cc3n2)n1 [Compound 63, 3-[6-[3-(6-methyl-2-pyridyl)-1H-pyrazol-4-yl]-1,5-naphthyridin-3-yl]propanoic acid]	3.98 to 31.6 nM	1580 to 10000 nM
Cc1cccc(-c2n[nH]cc2-c2ccc3ncc(-c4ccc5c(n4)CCNC5)cc3n2)n1 [Compound 678, 2-[3-(6-methyl-2-pyridyl)-1H-pyrazol-4-yl]-7-(5,6,7,8-tetrahydro-1,6-naphthyridin-2-yl)-1,5-naphthyridine]	< 0.0316 nM	25.1 to 158 nM

More lines, main results first:

Ki [2]	SMILES	IC50 [1]
< 0.0316 nM	Cc1cccc(-c2nc3ccccn3c2-c2ccc3ncc(-c4cc5n(n4)CCNC5)cc3n2)n1 [Compound 693, 2-[2-(6-methyl-2-pyridyl)imidazo[1,2-a]pyridin-3-yl]-7-(4,5,6,7-tetrahydropyrazolo[1,5-a]pyrazin-2-yl)-1,5-naphthyridine]	< 20 nM
0.0398 to 0.316 nM	Cc1cccc(-c2n[nH]cc2-c2ccc3nccc(-c4cn[nH]c4)c3n2)n1 [Compound 834, 2-[3-(6-methyl-2-pyridyl)-1H-pyrazol-4-yl]-8-(1H-pyrazol-4-yl)-1,5-naphthyridine]	< 20 nM
0.0398 to 0.316 nM	Cc1cccc(-c2[nH]cnc2-c2ccc3ncc(-c4ccc(C(=O)OC5CNC5)cc4)cc3c2)n1 [Compound 663, azetidin-3-yl 4-[6-[5-(6-methyl-2-pyridyl)-1H-imidazol-4-yl]-3-quinolyl]benzoate]	25.1 to 158 nM
0.0398 to 0.316 nM	CNC1CN(c2cnc3ccc(-c4c[nH]nc4-c4cccc(C)n4)nc3c2)C1 [Compound 94, N-methyl-1-[6-[3-(6-methyl-2-pyridyl)-1H-pyrazol-4-yl]-1,5-naphthyridin-3-yl]azetidin-3-amine]	25.1 to 158 nM
0.0398 to 0.316 nM	Cc1cccc(-c2n[nH]cc2-c2ccc3ncc(-c4nnc5n4CCN5)cc3n2)n1 [Compound 102, 7-(6,7-dihydro-5H-imidazo[2,1-c][1,2,4]triazol-3-yl)-2-[3-(6-methyl-2-pyridyl)-1H-pyrazol-4-yl]-1,5-naphthyridine]	1580 to 10000 nM
0.0398 to 0.316 nM	Cc1cccc(-c2[nH]cnc2-c2ccc3ncc(C(=O)OCCCC4CCNCC4)cc3c2)n1 [Compound 1132, 3-(4-piperidyl)propyl 6-[5-(6-methyl-2-pyridyl)-1H-imidazol-4-yl]quinoline-3-carboxylate]	25.1 to 158 nM
0.0398 to 0.316 nM	COc1[nH]nc(-c2cccc(C)n2)c1-c1ccc2ncc(N3CCNCC3)cc2n1 [Compound 33, 2-(5-methoxy-3-(6-methylpyridin-2-yl)-1H-pyrazol-4-yl)-7-(piperazin-1-yl)-1,5-naphthyridine]	25.1 to 158 nM
0.0398 to 0.316 nM	Cc1cccc(-c2[nH]cnc2-c2ccc3ncc(-c4ccc(C(=O)O[C@H]5CCNC5)cc4)cc3c2)n1 [Compound 718, [(3S)-pyrrolidin-3-yl]4-[6-[5-(6-methyl-2-pyridyl)-1H-imidazol-4-yl]-3-quinolyl]benzoate]	25.1 to 158 nM
< 0.0316 nM	Cc1nc(-c2n[nH]cc2-c2ccc3ncc(-c4cnn(C(=O)OC(C)C)c4)cc3n2)ccc1F [Compound 599, isopropyl 4-[6-[3-(5-fluoro-6-methyl-2-pyridyl)-1H-pyrazol-4-yl]-1,5-naphthyridin-3-yl]pyrazole-1-carboxylate]	< 20 nM
0.0398 to 0.316 nM	Cc1cccc(-c2[nH]cnc2-c2ccc3ncc(-c4nc(C(=O)OC5CNC5)cs4)cc3c2)n1 [Compound 745, azetidin-3-yl 2-[6-[5-(6-methyl-2-pyridyl)-1H-imidazol-4-yl]-3-quinolyl]thiazole-4-carboxylate]	25.1 to 158 nM
0.398 to 3.16 nM	Cc1cccc(-c2n[nH]cc2-c2ccc3nccc(NCC(=O)N4CCOCC4)c3n2)n1 [Compound 825, 2-[[6-[3-(6-methyl-2-pyridyl)-1H-pyrazol-4-yl]-1,5-naphthyridin-4-yl]amino]-1-morpholino-ethanone]	25.1 to 158 nM
0.0398 to 0.316 nM	Cc1cccc(-c2[nH]cnc2-c2ccc3ncc(-c4ccc(C(=O)OCCN5C[C@@H](C)N[C@@H](C)C5)cn4)cc3c2)n1 [Compound 1168, 2-[rac-(3S,5R)-3,5-dimethylpiperazin-1-yl]ethyl 6-[6-[5-(6-methyl-2-pyridyl)-1H-imidazol-4-yl]-3-quinolyl]pyridine-3-carboxylate]	25.1 to 158 nM
0.0398 to 0.316 nM	Cc1cccc(-c2[nH]cnc2-c2ccc3ncc(Nc4ccc(N5CCN(C)CC5)cn4)cc3n2)n1 [Compound 653, N-(5-(4-methylpiperazin-1-yl)pyridin-2-yl)-6-(5-(6-methylpyridin-2-yl)-1H imidazol-4-yl)-1,5-naphthyridin-3-amine]	25.1 to 158 nM
0.0398 to 0.316 nM	Cc1cccc(-c2[nH]cnc2-c2ccc3ncc(N4CCC(C(=O)O)CC4)cc3c2)n1 [Compound 213, 1-(6-(5-(6-methylpyridin-2-yl)-1H-imidazol-4-yl)quinolin-3-yl)piperidine-4-carboxylic acid]	200 to 1260 nM
< 0.0316 nM	Cc1cccc(-c2n[nH]cc2-c2ccc3ncc(-c4ccncc4)cc3n2)n1 [Compound 565, 2-[3-(6-methyl-2-pyridyl)-1H-pyrazol-4-yl]-7-(4-pyridyl)-1,5-naphthyridine]	< 20 nM
0.0398 to 0.316 nM	CCOC(=O)Cc1ccnc2ccc(-c3c[nH]nc3-c3cccc(C)n3)nc12 [Compound 855, ethyl 2-[6-[3-(6-methyl-2-pyridyl)-1H-pyrazol-4-yl]-1,5-naphthyridin-4-yl]acetate]	25.1 to 158 nM
0.0398 to 0.316 nM	CNC(=O)[C@H]1CN(c2cnc3ccc(-c4nc[nH]c4-c4cccc(C)n4)cc3c2)CCN1 [Compound 376, (2R)-N-methyl-4-[6-[5-(6-methyl-2-pyridyl)-1H-imidazol-4-yl]-3-quinolyl]piperazine-2-carboxamide]	200 to 1260 nM
